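Interpolation was linear, between the two tested concentrations surrounding the appropriate level; five concentrations were tested over 48 hours in 96-well plates. GI50 marks 50% less growth. TGI denotes the concentration required for complete inhibition of growth.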
Legend:
Experiment in all cases: NCI-60 cell line screen, 48 h
HCT-15 colon = test system: HCT-15 colon
LOX IMVI melanoma = test system: LOX IMVI melanoma
SK-MEL-28 melanoma = test system: SK-MEL-28 melanoma
SK-OV-3 ovarian = test system: SK-OV-3 ovarian
CAKI-1 renal = test system: CAKI-1 renal
NCI-H522 lung = test system: NCI-H522 lung
KM12 colon = test system: KM12 colon
MCF7 breast = test system: MCF7 breast
BT-549 breast = test system: BT-549 breast
NCI/ADR-RES ovarian = test system: NCI/ADR-RES ovarian

## CCOc1ccc(N=C(NC(=O)c2ccccc2)SC)cc1
HCT-15 colon
  TGI: > 100 µM
LOX IMVI melanoma
  TGI: > 100 µM
SK-MEL-28 melanoma
  TGI: > 100 µM
SK-OV-3 ovarian
  TGI: > 100 µM
CAKI-1 renal
  TGI: > 100 µM

## COc1cc2c(c3c1c(=O)c1ccccc1n3C)C=CC(C)(C)O2
NCI-H522 lung
  TGI: 50.7 µM
KM12 colon
  TGI: > 100 µM
HCT-15 colon
  TGI: > 100 µM
LOX IMVI melanoma
  TGI: > 100 µM
SK-MEL-28 melanoma
  TGI: > 100 µM
SK-OV-3 ovarian
  TGI: > 100 µM
CAKI-1 renal
  TGI: > 100 µM

## Clc1ccccc1CN1COc2c(ccc3cccnc23)C1
NCI-H522 lung
  TGI: 4.53 µM
KM12 colon
  TGI: 18.1 µM
HCT-15 colon
  TGI: 14.8 µM
LOX IMVI melanoma
  TGI: 22.5 µM
SK-MEL-28 melanoma
  TGI: 14.9 µM
SK-OV-3 ovarian
  TGI: 19.9 µM
CAKI-1 renal
  TGI: 12.8 µM

## O=C1c2ccccc2C(=O)C12CCc1ccccc12
HCT-15 colon
  TGI: > 100 µM
LOX IMVI melanoma
  TGI: > 100 µM
SK-MEL-28 melanoma
  TGI: > 100 µM
SK-OV-3 ovarian
  TGI: > 100 µM
CAKI-1 renal
  TGI: > 100 µM

## CO[C@H]1/C=C/O[C@@]2(C)Oc3c(C)c(O)c4c(O)c(c(/C=N/N5CCN(C)CC5)c(O)c4c3C2=O)NC(=O)/C(C)=C\C=C\[C@H](C)[C@H](O)[C@@H](C)[C@@H](O)[C@@H](C)[C@H](OC(C)=O)[C@@H]1C
MCF7 breast
  TGI: > 100 µM
KM12 colon
  TGI: > 100 µM
BT-549 breast
  TGI: > 100 µM
SK-MEL-28 melanoma
  TGI: > 100 µM
NCI/ADR-RES ovarian
  TGI: > 100 µM
SK-OV-3 ovarian
  TGI: > 100 µM
CAKI-1 renal
  TGI: > 100 µM

## O=C(NN1C(=O)CSC1c1cccc(Cl)c1)C(O)c1ccccc1 (stereo not drawn)
MCF7 breast
  GI50: > 100 µM
  TGI: > 100 µM
NCI-H522 lung
  GI50: 67.9 µM
  TGI: > 100 µM
KM12 colon
  GI50: 90.4 µM
  TGI: > 100 µM
HCT-15 colon
  GI50: 68.6 µM
  TGI: > 100 µM
LOX IMVI melanoma
  GI50: > 100 µM
  TGI: > 100 µM
BT-549 breast
  GI50: > 100 µM
  TGI: > 100 µM
SK-MEL-28 melanoma
  GI50: > 100 µM
  TGI: > 100 µM
SK-OV-3 ovarian
  GI50: > 100 µM
  TGI: > 100 µM
CAKI-1 renal
  GI50: 90.3 µM
  TGI: > 100 µM

## Cc1cc(NCc2cc(Nc3ccnc4cc(Cl)ccc34)ccc2F)nc(N2CCOCC2)n1
MCF7 breast
  GI50: 2.12 µM
  TGI: 6.15 µM
NCI-H522 lung
  GI50: 1.84 µM
  TGI: 4.39 µM
KM12 colon
  GI50: 2.01 µM
  TGI: 4.59 µM
NCI/ADR-RES ovarian
  GI50: 2.34 µM
  TGI: 6.97 µM
SK-OV-3 ovarian
  GI50: 1.7 µM
  TGI: 3.36 µM
CAKI-1 renal
  GI50: 1.52 µM
  TGI: 3.21 µM

## CN/N=C(/c1nc2ccc([N+](=O)[O-])cc2[nH]c1=O)C(O)c1ccc(C(O)/C(=N\NC)c2nc3ccc([N+](=O)[O-])cc3[nH]c2=O)cc1 (stereo not drawn)
KM12 colon
  TGI: > 100 µM
HCT-15 colon
  TGI: > 100 µM
LOX IMVI melanoma
  TGI: > 100 µM
SK-MEL-28 melanoma
  TGI: > 100 µM
SK-OV-3 ovarian
  TGI: > 100 µM
CAKI-1 renal
  TGI: > 100 µM

## COc1ccc(O)c(C(=O)CCC(=O)O)c1
NCI-H522 lung
  TGI: > 100 µM
KM12 colon
  TGI: > 100 µM
HCT-15 colon
  TGI: > 100 µM
LOX IMVI melanoma
  TGI: > 100 µM
SK-MEL-28 melanoma
  TGI: > 100 µM
SK-OV-3 ovarian
  TGI: > 100 µM

## COc1ccc2c(c1)CN([C@@H](C)[C@H]1CC[C@H]3[C@@H]4CC[C@H]5C[C@@H](O)CC[C@]5(C)[C@H]4CC[C@]13C)CO2
MCF7 breast
  TGI: 11.8 µM
NCI-H522 lung
  TGI: 4.21 µM
KM12 colon
  TGI: 4.31 µM
HCT-15 colon
  TGI: 3.75 µM
BT-549 breast
  TGI: 14.4 µM
SK-MEL-28 melanoma
  TGI: 5.98 µM
NCI/ADR-RES ovarian
  TGI: 18.6 µM
SK-OV-3 ovarian
  TGI: 3.56 µM
CAKI-1 renal
  TGI: 13.8 µM

## CCC1=CCN(c2cc(C)ccn2)OC1c1ccccc1 (stereo not drawn)
NCI-H522 lung
  TGI: 62.1 µM
KM12 colon
  TGI: > 100 µM
HCT-15 colon
  TGI: > 100 µM
LOX IMVI melanoma
  TGI: > 100 µM
SK-MEL-28 melanoma
  TGI: 77.1 µM
SK-OV-3 ovarian
  TGI: > 100 µM
CAKI-1 renal
  TGI: > 100 µM

## C1=Cc2nc1c(-c1ccccc1)c1ccc([nH]1)c(-c1ccccc1)c1nc(c(-c3ccccc3)c3ccc([nH]3)c2-c2ccccc2)C=C1
NCI-H522 lung
  TGI: > 100 µM
KM12 colon
  TGI: > 100 µM
HCT-15 colon
  TGI: > 100 µM
LOX IMVI melanoma
  TGI: > 100 µM
SK-MEL-28 melanoma
  TGI: > 100 µM
SK-OV-3 ovarian
  TGI: > 100 µM
CAKI-1 renal
  TGI: > 100 µM

## CCOC(=O)C1Cc2ccc3c4c(ccc(c24)C1)CC(C(=O)OCC)C3
NCI-H522 lung
  TGI: > 100 µM
KM12 colon
  TGI: > 100 µM
HCT-15 colon
  TGI: > 100 µM
LOX IMVI melanoma
  TGI: > 100 µM
SK-MEL-28 melanoma
  TGI: > 100 µM
SK-OV-3 ovarian
  TGI: > 100 µM

## CC(=O)OC(C(=O)[O][Sn]([CH3])([CH3])[CH3])c1ccccc1 (stereo not drawn)
NCI-H522 lung
  GI50: 19.9 µM
  TGI: 62.6 µM
KM12 colon
  GI50: > 100 µM
  TGI: > 100 µM
HCT-15 colon
  GI50: > 100 µM
  TGI: > 100 µM
LOX IMVI melanoma
  GI50: > 100 µM
  TGI: > 100 µM
SK-MEL-28 melanoma
  GI50: > 100 µM
  TGI: > 100 µM
SK-OV-3 ovarian
  GI50: > 100 µM
  TGI: > 100 µM
CAKI-1 renal
  GI50: > 100 µM
  TGI: > 100 µM

## COc1ccc(Nc2nc(Nc3cc(C)[nH]n3)c3cc(OC)c(OC)cc3n2)cc1
MCF7 breast
  GI50: 0.457 µM
  TGI: 2.05 µM
NCI-H522 lung
  GI50: 1.44 µM
  TGI: 4.48 µM
KM12 colon
  GI50: 0.61 µM
  TGI: 2.09 µM
HCT-15 colon
  GI50: 0.685 µM
  TGI: 2.45 µM
LOX IMVI melanoma
  GI50: 0.441 µM
  TGI: 1.7 µM
BT-549 breast
  GI50: 1.4 µM
  TGI: 2.9 µM
SK-MEL-28 melanoma
  GI50: 1.7 µM
  TGI: 3.26 µM
SK-OV-3 ovarian
  GI50: 1.83 µM
  TGI: 3.33 µM
CAKI-1 renal
  GI50: 1.59 µM
  TGI: 2.95 µM

## COc1ccc(-c2cnnn2-c2nonc2-n2cccc2)cc1OC
MCF7 breast
  GI50: 3.17 µM
  TGI: > 100 µM
NCI-H522 lung
  GI50: 2.32 µM
  TGI: 11.3 µM
KM12 colon
  GI50: 2.73 µM
  TGI: > 100 µM
HCT-15 colon
  GI50: 2.38 µM
  TGI: > 100 µM
BT-549 breast
  GI50: 4.06 µM
  TGI: > 100 µM
SK-MEL-28 melanoma
  GI50: 7.74 µM
  TGI: > 100 µM
NCI/ADR-RES ovarian
  GI50: 2.02 µM
  TGI: 5.99 µM
SK-OV-3 ovarian
  GI50: 5.18 µM
  TGI: 29.8 µM
CAKI-1 renal
  GI50: 3.39 µM
  TGI: > 100 µM

## Cc1ccc(S(=O)(=O)c2nc(-c3ccccc3)oc2S(C)(=O)=O)cc1
NCI-H522 lung
  GI50: 1.52 µM
  TGI: 3.3 µM
KM12 colon
  GI50: 13 µM
  TGI: 27.2 µM
HCT-15 colon
  GI50: 1.7 µM
  TGI: 3.31 µM
LOX IMVI melanoma
  GI50: 1.59 µM
  TGI: 2.99 µM
BT-549 breast
  GI50: 1.85 µM
  TGI: 3.72 µM
SK-MEL-28 melanoma
  GI50: 1.92 µM
  TGI: 3.77 µM
NCI/ADR-RES ovarian
  GI50: 7.43 µM
  TGI: 45 µM
SK-OV-3 ovarian
  GI50: 15.9 µM
  TGI: 29.3 µM
CAKI-1 renal
  GI50: 1.8 µM
  TGI: 3.21 µM

## C=C1C(=O)OC2C1CCC(C)C1(O)C=CC(=O)C21C (stereo not drawn)
MCF7 breast
  TGI: > 10 µM
KM12 colon
  TGI: > 10 µM
HCT-15 colon
  TGI: > 10 µM
LOX IMVI melanoma
  TGI: > 10 µM
SK-MEL-28 melanoma
  TGI: > 10 µM
NCI/ADR-RES ovarian
  TGI: > 10 µM
SK-OV-3 ovarian
  TGI: > 10 µM

## CN(C)c1ccc(/C=C(\NC(=O)c2ccccc2)c2nc3ccc4c(c3[nH]2)C(=O)c2ccccc2C4=O)cc1
NCI-H522 lung
  TGI: > 100 µM
KM12 colon
  TGI: > 100 µM
HCT-15 colon
  TGI: > 100 µM
LOX IMVI melanoma
  TGI: > 100 µM
SK-MEL-28 melanoma
  TGI: > 100 µM
SK-OV-3 ovarian
  TGI: > 100 µM
CAKI-1 renal
  TGI: > 100 µM

## CC(=O)c1ccc(NC(=O)C(=O)C(C(=O)/C=C/c2ccccc2)C2OC(=O)c3ccccc32)cc1 (stereo not drawn)
NCI-H522 lung
  TGI: > 100 µM
KM12 colon
  TGI: > 100 µM
HCT-15 colon
  TGI: > 100 µM
LOX IMVI melanoma
  TGI: > 100 µM
SK-MEL-28 melanoma
  TGI: > 100 µM
SK-OV-3 ovarian
  TGI: > 100 µM
CAKI-1 renal
  TGI: > 100 µM

## COC(=O)C(=O)C(CC(=O)Nc1ccc(C)cc1)C(=O)OC (stereo not drawn)
NCI-H522 lung
  TGI: > 100 µM
KM12 colon
  TGI: > 100 µM
HCT-15 colon
  TGI: > 100 µM
LOX IMVI melanoma
  TGI: > 100 µM
SK-MEL-28 melanoma
  TGI: > 100 µM
SK-OV-3 ovarian
  TGI: > 100 µM
CAKI-1 renal
  TGI: > 100 µM
